Earlier results on three compounds are cited in US20110071172A1, “SUBSTITUTED QUINAZOLINES AS BLOOD PLATELET LOWERING AGENTS” (Shire LLC, priority 2008, published 2011).

In general, IC50 refers to the point on the concentration scale where inhibition reaches its midpoint. For orientation: half-life means how long it takes for the measured level to halve.

Series [1] has as its target human phosphodiesterase 111 (PDE III). The following applies: for IC50: read-out: IC50, PDE III inhibition.
Series [2] concerns erythroid or myelomonocytic differentiation. Particulars: stimulated by erythropoietin or granulocyte-macrophage colony-stimulating factor.
The test system of series [3] is human megakaryocytopoiesis.

As for `Cc1[nH]c(=O)c(C#N)cc1-c1ccncc1` [milrinone], in series [1], the IC50 was 170 to 350 nM.

Take `O=C1CN2Cc3c(ccc(Cl)c3Cl)N=C2N1` [Anagrelide, 6,7-dichloro-1,5-dihydroimidazo[2,1-b]-quinazolin-2(3H)-one]: the “effect on erythroid or myelomonocytic differentiation” value in series [2] is recorded as “does not affect”. The first pass effect (in vivo) is reported as over 50%. The IC50 is about 29 nM in series [1] and about 26 nM in series [3] (estimated, in vitro, dose-dependent, read-out: IC50, inhibition of TPO-induced megakaryocytopoiesis).

Regarding `O=C1NC2=Nc3ccc(Cl)c(Cl)c3CN2C1O` (stereo not drawn) [3-hydroxyanagrelide], the half-life (typical) is 2.5 h. For the same compound, the “exposure in vivo relative to parent drug” value (typical exposures versus anagrelide) was 2-3 fold. In addition, in series [1] (ratio versus anagrelide), the “potency as PDE III inhibitor relative to anagrelide” value is on record as “over 40 fold”. Also, the “potency in inhibition of megakaryocytopoiesis relative to parent drug” value in series [3] (versus anagrelide) is given as “no more potent than the parent drug”.
